Data published in ChEMBL document CHEMBL1135570, “Acyclic analogues of adenosine bisphosphates as P2Y receptor antagonists: phosphate substitution leads to multiple pathways of inhibition of platelet aggregation” (J Med Chem, 2002).

organism: Rattus norvegicus; experiment: Inhibition of ADP-induced activation of rat platelets using aggregometry; format: functional

Compound | Ki [µM]
CNc1nc(Cl)nc2c1ncn2C[C@H](COP(=O)(O)O)OP(=O)(O)O | 2.6
CNc1nc(Cl)nc2c1ncn2C(COP(=O)(O)O)COP(=O)(O)O | 5.5
CNc1nc(Cl)nc2c1ncn2CC(COP(=O)(O)O)COP(=O)(O)O | 0.3
CNc1nc(Cl)nc2c1ncn2C[C@@H](COP(=O)(O)O)OP(=O)(O)O | 1.4
CNc1nc(Cl)nc2c1ncn2CCC(COP(=O)(O)O)COP(=O)(O)O | 0.46
CNc1ncnc2c1ncn2[C@H]1C[C@H](OP(=O)(O)O)[C@@H](COP(=O)(O)O)O1 | 0.58
CNc1nc(Cl)nc2c1ncn2C1C[C@@H](OC(=O)NC(C)C)[C@@H](COP(=O)(O)O)O1 (stereo partly drawn) | 6.4
CNc1nc(Cl)nc2c1ncn2[C@H]1CC(OC(C)=O)[C@]2(COP(=O)(O)O)CC12 (stereo partly drawn) | 10
CNc1nc(Cl)nc2c1ncn2CC(COC(C)=O)COC(C)=O | 18
CNc1nc(Cl)nc2c1ncn2CC(COC(=O)Nc1ccccc1)COC(=O)Nc1ccccc1 | 24
CCC(=O)OCC(COP(=O)(O)O)Cn1cnc2c(NC)nc(Cl)nc21 (stereo not drawn) | 21
CNc1nc(Cl)nc2c1ncn2[C@H]1CC(OP(=O)(O)O)[C@]2(COC(C)=O)CC12 (stereo partly drawn) | 16
CNc1nc(Cl)nc2c1ncn2CC(CP(=O)(O)O)CP(=O)(O)O | 0.68
CNc1nc(Cl)nc2c1ncn2CC(COC(C)=O)COC(=O)Cc1ccccc1 (stereo not drawn) | 12.3
CNc1nc(Cl)nc2c1ncn2[C@H]1CC(O)[C@]2(COP(=O)(O)O)CC12 (stereo partly drawn) | 33
CNc1nc(Cl)nc2c1ncn2CC(COP(=O)(O)OP(=O)(O)O)CP(=O)(O)O (stereo not drawn) | 1.1
CNc1nc(Cl)nc2c1ncn2CC(COC(C)=O)COC(=O)c1ccccc1 (stereo not drawn) | 6.9
CNc1nc(Cl)nc2c1ncn2CC(COC(=O)c1ccccc1)COC(=O)c1ccccc1 | 5.1
CNc1nc(Cl)nc2c1ncn2CC(COC(=O)Oc1ccccc1)COC(=O)Oc1ccccc1 | 26

Compound | Ki [µM]
CNc1nc(Cl)nc2c1ncn2CC(COC(=O)c1ccccc1F)COC(=O)c1ccccc1F | 24
CNc1nc(Cl)nc2c1ncn2CC(COC(=S)SCc1ccccc1)COC(=S)SCc1ccccc1 | 87
CNc1nc(Cl)nc2c1ncn2CC(COC(=O)c1ccccc1)COP(=O)(O)O (stereo not drawn) | 18
CNc1nc(Cl)nc2c1ncn2CC(COC(=O)CCC(=O)O)COC(=O)CCC(=O)O | 18
C/C=C\C(=O)OCC(COC(=O)/C=C/C)Cn1cnc2c(NC)nc(Cl)nc21 (stereo not drawn) | 10
CNc1nc(Cl)nc2c1ncn2CC(COC(=O)c1c(F)cccc1F)COC(=O)c1c(F)cccc1F | 33
CNc1nc(Cl)nc2c1ncn2[C@H]1C[C@@H](OP(=O)(O)O)[C@@H](COP(=O)(O)O)O1 | 0.42
CNc1nc(Cl)nc2c1ncn2[C@H]1C[C@@H](OP(=O)(O)O)[C@]2(COP(=O)(O)O)C[C@H]12 | 0.031
CNc1nc(Cl)nc2c1ncn2CC(COC(C)=O)COP(=O)(O)O (stereo not drawn) | 110
CNc1ncnc2c1ncn2CC(COP(=O)(O)O)COP(=O)(O)O | 0.51
CNc1nc(Cl)nc2c1ncn2[C@H]1CC(OC(C)=O)[C@]2(COC(C)=O)CC12 (stereo partly drawn) | 29
CCC(=O)OCC(COC(=O)CC)Cn1cnc2c(NC)nc(Cl)nc21 | 23
CNc1nc(Cl)nc2c1ncn2CC(COC(=O)Cc1ccccc1)COC(=O)Cc1ccccc1 | 2
CCNC(=O)O[C@@H]1CC(n2cnc3c(NC)nc(Cl)nc32)O[C@@H]1COP(=O)(O)O (stereo partly drawn) | 11
CNc1nc(Cl)nc2c1ncn2CC(COC(=O)C(C)(C)C)COP(=O)(O)O (stereo not drawn) | 29
CNc1nc(Cl)nc2c1ncn2CC(COC(=O)C(C)(C)C)COC(=O)C(C)(C)C | 3.6
CNc1nc(Cl)nc2c1ncn2CC(COC(=O)Nc1ccccc1)COP(=O)(O)O (stereo not drawn) | 2.5
CNc1nc(Cl)nc2c1ncn2[C@H]1CC(OP(=O)(O)O)[C@]2(CO)CC12 (stereo partly drawn) | 29
CNc1nc(Cl)nc2c1ncn2CC(CCCP(=O)(O)O)CCCP(=O)(O)O | 25
